# From US20240408169A1 (priority 2023, published 2024)
# Where two headings read alike, the source gives them in different places. *1 amine or outer side, *2 acyl side, *3 side chain or, on linkers, in order; H or OH if unused. Where a SMILES comes first, the peptide text is derived from it. Bridges are numbered along the chain shown (N, C = ends). [ ]: non-standard residue; d: D form. The star is where a group is joined. X7 = CC(C)C(=O)N1[C@H]2CC[C@@H]1C=C(c1ccc(F)cc1C[C@@H](C(=O)[*:2])N(C)[*:1])C2; X73 = CN([C@@H](Cc1cc(Cl)ccc1-c1ccc(N2CCN(Cc3cnn(C)c3)CC2)cc1)C(=O)[*:2])[*:1]; NMePhe(2-(4-MorPh),5-Cl) = CN[C@@H](Cc1cc(Cl)ccc1-c1ccc(N2CCOCC2)cc1)C(=O)O; X63 = CC(C)N1CCN(c2ccc(-c3ccc(Cl)cc3C[C@@H](C(=O)[*:2])N(C)[*:1])cc2F)CC1; X61 = Cc1nc2c(F)cc(-c3ccc(Cl)cc3C[C@@H](C(=O)[*:2])N(C)[*:1])cc2n1C(C)C; X108 = CN([C@@H](Cc1cc(Cl)ccc1-c1ccc(CN2CCOCC2)cc1)C(=O)[*:2])[*:1]; X37 = CN1CCN(c2ccc(-c3ccc(F)cc3C[C@@H](C(=O)[*:2])N(C)[*:1])cn2)CC1; X81 = COc1cc(N2CCOCC2)ccc1-c1ccc(Cl)cc1C[C@@H](C(=O)[*:2])N(C)[*:1]; X100 = CC(=O)NC1CC=C(c2ccc(Cl)cc2C[C@@H](C(=O)[*:2])N(C)[*:1])CC1; X30 = CN([C@@H](Cc1cc(Cl)ccc1-c1ccc2c(c1)ncn2C)C(=O)[*:2])[*:1]; X90 = CC(=O)N1CC=C(c2ccc(Cl)cc2C[C@@H](C(=O)[*:2])N(C)[*:1])CC1; NMehhhLys(Me) = CN([C@@H](CCCCCCCN(C)[*:3])C(=O)[*:2])[*:1]; X22 = CN([C@@H](Cc1cc(Cl)ccc1-c1cnn(C)c1)C(=O)[*:2])[*:1]; NMe(hhhLys) = CN([C@@H](CCCCCCCN[*:3])C(=O)[*:2])[*:1]; Oxane2carbonyl(2R-CF3) = O=C([C@@]1(C(F)(F)F)CCCCO1)*; X28 = CN([C@@H](Cc1cc(Cl)cnc1OC1CCC1)C(=O)[*:2])[*:1]; Cyclobutanecarbonyl(1-CF3) = O=C(C1(C(F)(F)F)CCC1)*; cBuCO(3,3-F2-1-CF3) = O=C(C1(C(F)(F)F)CC(F)(F)C1)*; Pro(trans-4-F) = O=C(O)[C@@H]1C[C@@H](F)CN1; Nva(5-OH) = N[C@@H](CCCO)C(=O)O; Gly(cPr) = N[C@H](C(=O)O)C1CC1
# Columns and labels:
# CyclinA2/CDK2 = target: T1, CyclinA2/CDK2 (Homo sapiens, UniProt P20248); assay: Fluorescence Polarization (FP) competitive binding assay, Cyclin A2/Cdk2;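 further: plates equilibrated two hours at room temperature before polarization reading, IC50 fitted from eight-concentration compound titration curves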
# T1 construct: purchased CRELUX Protein Services
# CyclinB1/CDK1 = target: T2, CyclinB1/CDK1 (Homo sapiens, UniProt P14635); assay: Fluorescence Polarization (FP) competitive binding assay, Cyclin B1/Cdk1;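 further: fluorescence polarization read after equilibration at room temperature, with IC50 taken from serially diluted dose-response curves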
# T2 construct: purchased Eurofins, discovery 14-450
# CyclinE1/CDK2 = target: T3, CyclinE1/CDK2 (Homo sapiens, UniProt P24864); assay: Fluorescence Polarization (FP) competitive binding assay, Cyclin E1/Cdk2;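 further: readings taken after two-hour equilibration at room temperature in HEPES buffer with NaCl, DTT, NP-40 and BSA, IC50 fitted from eight-concentration serial dilution series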
# T3 construct: purchased Eurofins, discovery 14-475
# WI-38 cells = assay: MTT proliferation assay, WI-38; format: cell-based; conditions: 3 days compound exposure, 1:3 serial dilution starting at 10 μM;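 further: Eight- or ten-point dilution series, with exposure length chosen to span about three to four cell doublings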
# NCI-H1048 cells = assay: MTT proliferation assay, NCI-H1048; format: cell-based; conditions: 5 days compound exposure, 1:3 serial dilution starting at 10 μM;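 further: Dose-response in 96-well plates over 8 or 10 concentration points, with exposure spanning 3-4 cell doublings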
# OVCAR3 cells = assay: MTT proliferation assay, OVCAR3; format: cell-based; conditions: 5 days compound exposure, 1:3 serial dilution starting at 10 μM;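 further: compound given as an 8- or 10-point series, one day after plating, with exposure covering roughly 3-4 cell doublings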
# [1] = read-out: Cyclin B FP IC50; 10 nM Cyclin B1/Cdk1, 2 nM FAM probe; average of 2-3 independent experiments
# [2] = 8 nM Cyclin A2/Cdk2, 2 nM FAM probe, average of 2-3 independent experiments, read-out: Cyclin A FP IC50
# [3] = 10 nM Cyclin B1/Cdk1, 2 nM FAM probe; average of 2-3 independent experiments; read-out: Cyclin B FP IC50
# [4] = 10 nM Cyclin E1/Cdk2, 2 nM FAM probe, average of 2-3 independent experiments, read-out: Cyclin E FP IC50
Compound,IC50 (CyclinA2/CDK2) [nM],IC50 (CyclinB1/CDK1; [1]) [nM],IC50 (CyclinE1/CDK2) [nM],GI50 (WI-38 cells) [µM],GI50 (NCI-H1048 cells) [nM],GI50 (OVCAR3 cells) [nM],IC50 (CyclinA2/CDK2; [2]) [nM],IC50 (CyclinB1/CDK1; [3]) [nM],IC50 (CyclinE1/CDK2; [4]) [nM]
CCN(C(=O)[C@@H](NC(=O)[C@@H]1C[C@@H](F)CN1C(=O)[C@@]1(C(F)(F)F)CCCCO1)C1CC1)[C@H]1CCCCCCCN(C)C(=O)[C@H](Cc2cc(Cl)cnc2OC2CC2)N(C)C(=O)[C@H](CC(C)C)NC1=O [Example 221],60,20,180,16.6,20,30,–,–,–
CC(C)C[C@@H]1NC(=O)[C@@H](N(C)C(=O)[C@@H](NC(=O)[C@@H]2C[C@@H](F)CN2C(=O)C2(C(F)(F)F)CCC2)C2CC2)CCCCCCCNC(=O)[C@H](Cc2cc(Cl)cnc2OC2CCC2)N(C)C1=O [Example 141] ({Cyclobutanecarbonyl(1-CF3)}-[Pro(trans-4-F)][Gly(cPr)][NMe(hhhLys)]L[X28]; lactam 3-C),–,–,–,3.39,90,190,40,20,100
CC(C)C[C@@H]1NC(=O)[C@@H](N(C)C(=O)[C@@H](NC(=O)[C@@H]2C[C@@H](F)CN2C(=O)[C@@]2(C(F)(F)F)CCCCO2)C2CC2)CCCCCCCN(C)C(=O)[C@H](Cc2cc(Cl)ccc2-c2cnn(C)c2)N(C)C1=O [Example 184] ({Oxane2carbonyl(2R-CF3)}-[Pro(trans-4-F)][Gly(cPr)][NMehhhLys(Me)]L[X22]; lactam 3-C),–,–,–,3.65,10,10,20,20,100
"CC(C)C[C@@H]1NC(=O)[C@@H](N(C)C(=O)[C@@H](NC(=O)[C@@H]2C[C@@H](F)CN2C(=O)C2(C(F)(F)F)CC(F)(F)C2)C2CC2)CCCCCCCN(C)C(=O)[C@H](Cc2cc(Cl)ccc2-c2ccc3c(c2)ncn3C)N(C)C1=O [Example 251] ({cBuCO(3,3-F2-1-CF3)}-[Pro(trans-4-F)][Gly(cPr)][NMehhhLys(Me)]L[X30]; lactam 3-C)",40,20,930,13.9,10,10,–,–,–
"Cc1nc2c(F)cc(-c3ccc(Cl)cc3C[C@H]3C(=O)N(C)CCCCCCC[C@H](N(C)C(=O)[C@@H](NC(=O)[C@@H]4C[C@@H](F)CN4C(=O)C4(C(F)(F)F)CC(F)(F)C4)C4CC4)C(=O)N[C@@H](CC(C)C)C(=O)N3C)cc2n1C(C)C [Example 231] ({cBuCO(3,3-F2-1-CF3)}-[Pro(trans-4-F)][Gly(cPr)][NMehhhLys(Me)]L[X61]; lactam 3-C)",60,20,2940,13.4,20,40,–,–,–
"CC(C)C[C@@H]1NC(=O)[C@@H](N(C)C(=O)[C@@H](NC(=O)[C@@H]2C[C@@H](F)CN2C(=O)C2(C(F)(F)F)CC(F)(F)C2)C2CC2)CCCCCCCN(C)C(=O)[C@H](Cc2cc(Cl)ccc2-c2ccc(CN3CCOCC3)cc2)N(C)C1=O [Example 359, (2S,4R)—N—((S)-2-(((3S,6S,9S)-3-((4-chloro-4′-(morpholinomethyl)-[1,1′-biphenyl]-2-yl)methyl)-6-isobutyl-1,4-dimethyl-2,5,8-trioxo-1,4,7-triazacyclohexadecan-9-yl)(methyl)amino)-1-cyclopropyl-2-oxoethyl)-1-(3,3-difluoro-1-(trifluoromethyl)cyclobutane-1-carbonyl)-4-fluoropyrrolidine-2-carboxamide] ({cBuCO(3,3-F2-1-CF3)}-[Pro(trans-4-F)][Gly(cPr)][NMehhhLys(Me)]L[X108]; lactam 3-C)",–,–,–,4.56,10,10,20,20,680
"CC(=O)NC1CC=C(c2ccc(Cl)cc2C[C@H]2C(=O)N(C)CCCCCCC[C@H](N(C)C(=O)[C@@H](NC(=O)[C@@H]3C[C@@H](F)CN3C(=O)C3(C(F)(F)F)CC(F)(F)C3)C3CC3)C(=O)N[C@@H](CC(C)C)C(=O)N2C)CC1 (stereo partly drawn) [Example 60] ({cBuCO(3,3-F2-1-CF3)}-[Pro(trans-4-F)][Gly(cPr)][NMehhhLys(Me)]L[X100]; lactam 3-C)",–,–,–,5.72,10,10,20,20,740
"CC(C)C[C@@H]1NC(=O)[C@@H](N(C)C(=O)[C@@H](NC(=O)[C@@H]2C[C@@H](F)CN2C(=O)C2(C(F)(F)F)CC(F)(F)C2)C2CC2)CCCCCCCN(C)C(=O)[C@H](Cc2cc(Cl)ccc2-c2ccc(N3CCN(Cc4cnn(C)c4)CC3)cc2)N(C)C1=O [Example 372] ({cBuCO(3,3-F2-1-CF3)}-[Pro(trans-4-F)][Gly(cPr)][NMehhhLys(Me)]L[X73]; lactam 3-C)",–,–,–,2.84,10,10,20,20,430
"CC(C)C[C@@H]1NC(=O)[C@@H](N(C)C(=O)[C@@H](NC(=O)[C@@H]2C[C@@H](F)CN2C(=O)C2(C(F)(F)F)CC(F)(F)C2)C2CC2)CCCCCCCN(C)C(=O)[C@H](Cc2cc(F)ccc2C2=C[C@H]3CC[C@@H](C2)N3C(=O)C(C)C)N(C)C1=O [Example 318] ({cBuCO(3,3-F2-1-CF3)}-[Pro(trans-4-F)][Gly(cPr)][NMehhhLys(Me)]L[X7]; lactam 3-C)",–,–,–,9.92,10,10,20,20,280
"CC(C)C[C@@H]1NC(=O)[C@@H](N(C)C(=O)[C@@H](NC(=O)[C@@H]2C[C@@H](F)CN2C(=O)C2(C(F)(F)F)CC(F)(F)C2)C2CC2)CCCCCCCN(C)C(=O)[C@H](Cc2cc(F)ccc2-c2ccc(N3CCN(C)CC3)nc2)N(C)C1=O [Example 391] ({cBuCO(3,3-F2-1-CF3)}-[Pro(trans-4-F)][Gly(cPr)][NMehhhLys(Me)]L[X37]; lactam 3-C)",–,–,–,7.82,10,10,30,20,610
"COc1cc(N2CCOCC2)ccc1-c1ccc(Cl)cc1C[C@H]1C(=O)N(C)CCCCCCC[C@H](N(C)C(=O)[C@@H](NC(=O)[C@@H]2C[C@@H](F)CN2C(=O)C2(C(F)(F)F)CC(F)(F)C2)C2CC2)C(=O)N[C@@H](CC(C)C)C(=O)N1C [Example 361] ({cBuCO(3,3-F2-1-CF3)}-[Pro(trans-4-F)][Gly(cPr)][NMehhhLys(Me)]L[X81]; lactam 3-C)",–,–,–,14.3,30,10,50,20,1840
"CCOC(=O)N1CC=C(c2ccc(Cl)cc2C[C@H]2C(=O)NCCCCC=CC[C@H](N(C)C(=O)[C@@H](NC(=O)[C@@H]3C[C@@H](F)CN3C(=O)C3(C(F)(F)F)CC(F)(F)C3)C3CC3)C(=O)N[C@@H](CC(C)C)C(=O)N2C)CC1 [Example 53, Ethyl 4-(4-chloro-2-(((3S,6S,9S)-9-((S)-2-cyclopropyl-2-((2S,4R)-1-(3,3-difluoro-1-(trifluoromethyl)cyclobutane-1-carbonyl)-4-fluoropyrrolidine-2-carboxamido)-N-methylacetamido)-6-isobutyl-4-methyl-2,5,8-trioxo-1,4,7-triazacyclohexadec-11-en-3-yl)methyl)phenyl)-3,6-dihydropyridine-1 (2H)-carboxylate]",–,–,–,4.5,180,180,90,20,12400
"CC(C)C[C@@H]1NC(=O)[C@@H](N(C)C(=O)[C@@H](NC(=O)[C@@H]2C[C@@H](F)CN2C(=O)C2(C(F)(F)F)CC(F)(F)C2)C2CC2)CCCCCCCN(C)C(=O)[C@H](Cc2cc(Cl)ccc2-c2ccc(N3CCN(C(C)C)CC3)c(F)c2)N(C)C1=O [Example 413] ({cBuCO(3,3-F2-1-CF3)}-[Pro(trans-4-F)][Gly(cPr)][NMehhhLys(Me)]L[X63]; lactam 3-C)",–,–,–,1.6,10,10,20,20,1310
"CC(=O)N1CC=C(c2ccc(Cl)cc2C[C@H]2C(=O)NCCCCCCC[C@H](N(C)C(=O)[C@@H](NC(=O)[C@@H]3C[C@@H](F)CN3C(=O)C3(C(F)(F)F)CC(F)(F)C3)C3CC3)C(=O)N[C@@H](CC(C)C)C(=O)N2C)CC1 [Example 20] ({cBuCO(3,3-F2-1-CF3)}-[Pro(trans-4-F)][Gly(cPr)][NMe(hhhLys)]L[X90]; lactam 3-C)",–,–,–,11.1,20,20,20,20,1520
"CC(C)C[C@@H]1NC(=O)[C@@H](N(C)C(=O)[C@H](CCCO)NC(=O)[C@@H]2C[C@@H](F)CN2C(=O)C2(C(F)(F)F)CC(F)(F)C2)CCCCCCCN(C)C(=O)[C@H](Cc2cc(Cl)ccc2-c2ccc(N3CCOCC3)cc2)N(C)C1=O [Example 421] ({cBuCO(3,3-F2-1-CF3)}-[Pro(trans-4-F)][Nva(5-OH)][NMehhhLys(Me)]L[NMePhe(2-(4-MorPh),5-Cl)]; lactam 3-C)",–,–,–,19.1,10,10,20,20,510
CC(C)C[C@@H]1NC(=O)[C@@H](N(C)C(=O)[C@@H](NC(=O)[C@@H]2N[C@@H](F)CC2C(=O)C2(C(F)(F)F)CC(F)(F)C2)C2CC2)CC=CCCCCN(C)C(=O)[C@H](Cc2cc(Cl)cnc2OC(C)C)N(C)C1=O (stereo partly drawn) [Example 130],–,–,–,8.99,700,1550,70,20,310
